In general, inhibition refers to the drop in the measured response relative to a control, in per cent.

Assay [1] has as its target Serine/threonine-protein kinase MARK2 (Homo sapiens) (UniProt Q7KZI7). The assay can be described thus: Inhibition of human full length MARK2 expressed in baculovirus assessed as substrate phosphorylation using fluorescence-labelled peptides as substrate at 2 uM after 90 mins by microfluidic peptide phosphorylation assay.
Assay [2] concerns the target T1, Serine/threonine-protein kinase D3 (Homo sapiens) (UniProt O94806).
T1 sequence (whole entry): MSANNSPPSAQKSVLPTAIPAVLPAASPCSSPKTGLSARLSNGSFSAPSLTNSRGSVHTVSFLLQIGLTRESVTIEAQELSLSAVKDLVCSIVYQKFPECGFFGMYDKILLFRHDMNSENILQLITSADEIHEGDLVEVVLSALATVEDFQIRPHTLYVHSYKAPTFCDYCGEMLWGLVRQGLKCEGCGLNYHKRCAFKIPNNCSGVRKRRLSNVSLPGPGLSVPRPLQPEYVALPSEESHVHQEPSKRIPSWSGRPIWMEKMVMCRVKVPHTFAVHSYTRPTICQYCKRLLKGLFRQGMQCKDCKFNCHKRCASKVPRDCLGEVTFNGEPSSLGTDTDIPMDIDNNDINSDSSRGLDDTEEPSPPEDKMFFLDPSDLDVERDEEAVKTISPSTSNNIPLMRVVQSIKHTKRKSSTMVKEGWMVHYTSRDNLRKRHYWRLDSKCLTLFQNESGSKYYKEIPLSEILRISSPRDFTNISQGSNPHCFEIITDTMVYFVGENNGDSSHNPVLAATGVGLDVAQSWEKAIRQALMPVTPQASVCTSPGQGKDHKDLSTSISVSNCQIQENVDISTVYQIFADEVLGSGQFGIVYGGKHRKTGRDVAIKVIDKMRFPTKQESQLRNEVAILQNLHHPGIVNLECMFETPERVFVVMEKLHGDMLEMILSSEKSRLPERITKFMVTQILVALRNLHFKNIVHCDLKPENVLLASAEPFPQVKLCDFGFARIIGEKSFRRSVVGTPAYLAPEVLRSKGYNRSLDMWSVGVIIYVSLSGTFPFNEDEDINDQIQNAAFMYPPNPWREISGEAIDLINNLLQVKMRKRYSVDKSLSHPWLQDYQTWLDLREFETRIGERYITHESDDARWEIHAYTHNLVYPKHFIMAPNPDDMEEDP
The assay can be described thus: Inhibition of human full length PKD3 expressed in baculovirus assessed as substrate phosphorylation using fluorescence-labelled peptides as substrate at 0.2 uM after 90 mins by microfluidic peptide phosphorylation assay.

Assay [3] has as its target Fibroblast growth factor receptor 3 (Homo sapiens) (UniProt P22607). The assay can be described thus: Inhibition of human FGFR3 catalytic domain expressed in baculovirus assessed as substrate phosphorylation using fluorescence-labelled peptides as substrate at 0.06 uM after 90 mins by microfluidic peptide phosphorylation assay.
Assay [4] concerns the target Tyrosine-protein kinase Fer (Homo sapiens) (UniProt P16591). Put plainly: Inhibition of human FER catalytic domain expressed in baculovirus assessed as substrate phosphorylation using fluorescence-labelled peptides as substrate at 9 uM after 90 mins by microfluidic peptide phosphorylation assay.
Assay [5] deals with T2, Aurora kinase C (Homo sapiens) (UniProt Q9UQB9).
T2 sequence (whole entry): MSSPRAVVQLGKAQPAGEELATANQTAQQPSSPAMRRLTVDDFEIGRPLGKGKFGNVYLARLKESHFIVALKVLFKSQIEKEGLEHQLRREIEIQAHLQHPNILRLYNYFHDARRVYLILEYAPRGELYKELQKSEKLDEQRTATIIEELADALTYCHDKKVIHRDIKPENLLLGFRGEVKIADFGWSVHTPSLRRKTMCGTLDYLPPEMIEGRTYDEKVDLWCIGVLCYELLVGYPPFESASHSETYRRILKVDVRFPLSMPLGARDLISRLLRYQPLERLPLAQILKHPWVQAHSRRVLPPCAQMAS
Put plainly: Inhibition of human full length AurC expressed in baculovirus assessed as substrate phosphorylation using fluorescence-labelled peptides as substrate at 95 uM after 90 mins by microfluidic peptide phosphorylation assay.

The test system of assay [6] is T3, Receptor-type tyrosine-protein kinase FLT3 (Homo sapiens), P36888 [D835Y].
T3 sequence (whole entry): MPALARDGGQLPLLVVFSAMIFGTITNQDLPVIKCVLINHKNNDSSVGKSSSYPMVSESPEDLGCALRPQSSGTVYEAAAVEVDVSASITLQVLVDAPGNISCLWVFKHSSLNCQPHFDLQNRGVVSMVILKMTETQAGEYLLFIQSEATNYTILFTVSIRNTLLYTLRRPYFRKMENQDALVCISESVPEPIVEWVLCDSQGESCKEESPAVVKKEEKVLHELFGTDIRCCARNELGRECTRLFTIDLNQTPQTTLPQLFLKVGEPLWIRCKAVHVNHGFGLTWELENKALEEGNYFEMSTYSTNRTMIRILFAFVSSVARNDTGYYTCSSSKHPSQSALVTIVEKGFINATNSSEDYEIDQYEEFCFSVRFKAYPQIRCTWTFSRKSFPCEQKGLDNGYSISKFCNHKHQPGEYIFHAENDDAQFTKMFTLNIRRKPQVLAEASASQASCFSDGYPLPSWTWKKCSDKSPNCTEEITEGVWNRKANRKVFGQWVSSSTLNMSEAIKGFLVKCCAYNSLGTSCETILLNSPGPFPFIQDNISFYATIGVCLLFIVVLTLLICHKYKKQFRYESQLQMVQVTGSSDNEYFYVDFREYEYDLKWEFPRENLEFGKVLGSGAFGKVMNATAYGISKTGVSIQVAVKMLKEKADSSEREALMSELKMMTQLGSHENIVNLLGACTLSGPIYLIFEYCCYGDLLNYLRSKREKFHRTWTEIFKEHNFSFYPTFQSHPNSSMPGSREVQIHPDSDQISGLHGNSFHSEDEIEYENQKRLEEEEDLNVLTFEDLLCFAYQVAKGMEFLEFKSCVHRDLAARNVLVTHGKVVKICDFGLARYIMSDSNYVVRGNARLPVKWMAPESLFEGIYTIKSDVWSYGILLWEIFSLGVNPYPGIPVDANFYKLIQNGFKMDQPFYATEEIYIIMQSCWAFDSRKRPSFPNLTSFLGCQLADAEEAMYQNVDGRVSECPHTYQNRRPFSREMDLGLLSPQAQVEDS
Put plainly: Inhibition of human FLT3 D835Y mutant catalytic domain expressed in baculovirus assessed as substrate phosphorylation using fluorescence-labelled peptides as substrate at 95 uM after 90 mins by microfluidic peptide phosphorylation assay.

Sequence of Serine/threonine-protein kinase MARK2 (Homo sapiens) (Q7KZI7 whole entry): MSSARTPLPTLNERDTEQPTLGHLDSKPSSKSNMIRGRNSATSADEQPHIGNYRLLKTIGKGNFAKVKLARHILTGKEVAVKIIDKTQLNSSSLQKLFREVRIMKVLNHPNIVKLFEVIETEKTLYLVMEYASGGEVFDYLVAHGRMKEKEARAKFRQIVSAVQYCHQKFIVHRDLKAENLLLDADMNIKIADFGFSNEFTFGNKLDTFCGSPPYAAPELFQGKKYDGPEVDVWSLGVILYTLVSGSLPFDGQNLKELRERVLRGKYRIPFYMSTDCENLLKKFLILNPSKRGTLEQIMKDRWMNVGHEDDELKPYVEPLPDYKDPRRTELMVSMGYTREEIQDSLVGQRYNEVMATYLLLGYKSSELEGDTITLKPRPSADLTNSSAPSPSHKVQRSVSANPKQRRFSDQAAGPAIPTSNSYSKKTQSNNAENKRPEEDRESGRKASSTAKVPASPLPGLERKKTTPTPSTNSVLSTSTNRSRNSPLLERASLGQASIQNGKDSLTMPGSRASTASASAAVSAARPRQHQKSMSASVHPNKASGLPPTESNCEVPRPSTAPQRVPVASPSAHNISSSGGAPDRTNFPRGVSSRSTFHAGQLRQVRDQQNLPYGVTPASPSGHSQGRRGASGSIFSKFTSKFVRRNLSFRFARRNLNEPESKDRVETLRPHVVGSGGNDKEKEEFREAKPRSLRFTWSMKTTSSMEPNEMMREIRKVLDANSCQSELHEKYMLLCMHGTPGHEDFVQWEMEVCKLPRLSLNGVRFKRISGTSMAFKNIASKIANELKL
Sequence of Fibroblast growth factor receptor 3 (Homo sapiens) (P22607 23-806 limits assumed): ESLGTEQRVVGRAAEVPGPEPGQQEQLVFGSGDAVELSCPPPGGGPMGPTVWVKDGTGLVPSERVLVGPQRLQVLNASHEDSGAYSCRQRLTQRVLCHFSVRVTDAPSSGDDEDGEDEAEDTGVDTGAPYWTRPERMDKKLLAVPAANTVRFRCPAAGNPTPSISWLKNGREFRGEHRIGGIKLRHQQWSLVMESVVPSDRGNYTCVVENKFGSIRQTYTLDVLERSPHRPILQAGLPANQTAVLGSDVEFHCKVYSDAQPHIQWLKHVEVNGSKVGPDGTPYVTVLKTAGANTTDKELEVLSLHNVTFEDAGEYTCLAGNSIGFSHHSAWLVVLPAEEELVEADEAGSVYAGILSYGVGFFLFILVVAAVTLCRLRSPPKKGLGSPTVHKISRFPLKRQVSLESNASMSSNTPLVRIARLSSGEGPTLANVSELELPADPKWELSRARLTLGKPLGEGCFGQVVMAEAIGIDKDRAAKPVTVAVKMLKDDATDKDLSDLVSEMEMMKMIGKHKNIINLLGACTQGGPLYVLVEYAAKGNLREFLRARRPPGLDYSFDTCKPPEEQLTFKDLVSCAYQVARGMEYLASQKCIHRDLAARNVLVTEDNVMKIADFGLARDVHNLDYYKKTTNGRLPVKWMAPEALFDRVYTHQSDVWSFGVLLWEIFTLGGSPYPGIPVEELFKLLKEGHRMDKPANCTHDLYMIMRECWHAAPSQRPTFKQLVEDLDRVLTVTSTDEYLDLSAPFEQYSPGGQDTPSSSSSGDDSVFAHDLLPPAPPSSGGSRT
Sequence of Tyrosine-protein kinase Fer (Homo sapiens) (P16591 whole entry, looked up, the tested form may be a part): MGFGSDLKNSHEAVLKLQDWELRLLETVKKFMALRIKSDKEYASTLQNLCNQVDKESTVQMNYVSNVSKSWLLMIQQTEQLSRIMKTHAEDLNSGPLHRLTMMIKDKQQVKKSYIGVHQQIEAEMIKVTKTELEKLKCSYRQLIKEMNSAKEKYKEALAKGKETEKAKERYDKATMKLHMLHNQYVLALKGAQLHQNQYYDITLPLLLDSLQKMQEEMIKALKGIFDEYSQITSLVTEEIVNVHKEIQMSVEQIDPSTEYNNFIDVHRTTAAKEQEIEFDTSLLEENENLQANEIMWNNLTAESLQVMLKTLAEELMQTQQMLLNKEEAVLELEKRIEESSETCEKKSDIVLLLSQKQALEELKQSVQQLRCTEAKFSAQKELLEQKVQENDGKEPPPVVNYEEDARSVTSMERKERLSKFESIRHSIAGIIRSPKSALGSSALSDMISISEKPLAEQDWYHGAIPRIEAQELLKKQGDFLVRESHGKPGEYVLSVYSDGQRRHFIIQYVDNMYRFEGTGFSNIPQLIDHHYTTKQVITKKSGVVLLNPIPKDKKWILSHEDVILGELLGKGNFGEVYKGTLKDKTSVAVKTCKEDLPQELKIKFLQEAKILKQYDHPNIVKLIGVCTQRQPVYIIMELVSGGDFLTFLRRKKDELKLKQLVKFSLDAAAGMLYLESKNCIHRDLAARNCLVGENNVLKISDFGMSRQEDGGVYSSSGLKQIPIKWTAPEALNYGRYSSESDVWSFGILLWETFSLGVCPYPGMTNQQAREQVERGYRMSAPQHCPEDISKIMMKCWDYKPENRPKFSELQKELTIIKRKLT

In the case of `NC1CCN(c2ncnc3[nH]ccc23)CC1`, the inhibition in assay [1] is 0%.
For the compound `Clc1ccc(C2(c3ccc(-c4ncnc5[nH]cnc45)cc3)CCNCC2)cc1`, in assay [2], the inhibition came out at 12.5%.
Turning to `NC1(Cc2ccc(Cl)cc2)CCN(c2ncnc3[nH]ccc23)CC1`, in assay [3], the inhibition is 0%.
With `NCC1CN(c2ncnc3[nH]c4cnccc4c23)CCO1` (stereo unspecified), the inhibition in assay [4] was determined as 11%.
`NCCc1ccc(-c2ncnc3[nH]cnc23)cc1`: the results for the inhibition in assay [5] and in assay [6] were 87.5% and 86%, respectively.

Source of the values: ChEMBL document CHEMBL3132769, “Fragment growing to retain or alter the selectivity of anchored kinase hinge-binding fragments” (Medchemcomm, 2014).
